The values below come from PubChem BioAssay AID624456 (Sanford-Burnham Center for Chemical Genomics, 2012).

The data set concerns compound stability in 1x PBS, percent remaining. The data set is described as follows: compound stability in phosphate-buffered saline, ADME assay, biochemical, 1x PBS, with and without 50% ACN, set 2 (AID 624456).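 Also: percent left after two days of incubation at room temperature.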
The mark [1] stands for this setting: measured here: stability in PBS with 50% ACN.

With `CN(C)c1nc(N)nc(CSc2nnnn2-c2cccc3ccccc23)n1`, the stability worked out at 75.8%. Under setting [1], this molecule had a stability of 94.6%.
With `Cc1ccc(C)c(NS(=O)(=O)c2cc(C(=O)Nc3ccccc3-c3ccccc3)ccc2Cl)c1`, the stability came to 34.6%. Under setting [1], this molecule registered a stability of 98%.
For `CCOC(=O)C(C)Oc1cccc2c(=O)n(CC(=O)Nc3ccc4c(c3)OCCO4)ccc12` (configuration not stated), in that order: 56.1% and 94.6%.
The matching figures for `Cc1ccc(S(=O)(=O)C(c2ccccc2)c2c(C)noc2C)cc1` (configuration not stated): 83.8% and 99.3%.
The matching figures for `CCCN1CNc2c(c(=O)[nH]c(=S)n2CCc2ccc(OC)c(OC)c2)C1`: 78.5% and 100%.
`C/C=C/Cn1c(SCCCc2ccccc2)nc2c1c(=O)[nH]c(=O)n2C` yielded a stability of 73.4%. Under setting [1], the stability was found to be 100%.
